Where a name gives a salt, the structure may show the parent alone.
How the values were obtained:
[1] = tested on: Alternaria solani; assay: Fungicidal (bactericidal) activity in vitro, PDA colony diameter; assay type: cell-based
[2] = tested on: corn borers; settings: in vivo
[3] = tested on: Fusarium graminearumt; assay: microbe, parasite or virus in culture; assay type: cell-based; settings: 50 mg/kg
[4] = tested on: Fusarium fujikuroi; assay: Fungicidal (bactericidal) activity in vitro, PDA colony diameter; assay type: cell-based
[5] = tested on: Sclerotinia scleotiorum; assay: as above; assay type: cell-based
[6] = tested on: cotton bollworms; assay: whole plant or invertebrate; settings: in vivo
Description: Experimental method of cotton bollworms: feed and drug mixing method: measure 3 mL of prepared solution and add it to about 27 g of newly prepared feed, thereby obtaining needed concentration through dilution by 10 times.

[7] = tested on: Macrophoma kawatsukai; assay: Fungicidal (bactericidal) activity in vitro, PDA colony diameter; assay type: cell-based
[8] = tested on: Rhizoctonia solani; assay: as above; assay type: cell-based
[9] = tested on: Rhizoctonia cereali; assay: as above; assay type: cell-based
[10] = tested on: potato late blight; assay: microbe, parasite or virus in culture; assay type: cell-based
[11] = tested on: Bipolaria maydis; assay: organism not typed; assay type: cell-based; settings: 50 mg/kg
[12] = tested on: cucumber fusarium wilt; assay: Fungicidal (bactericidal) activity in vitro, PDA colony diameter; assay type: cell-based
[13] = tested on: armyworms; assay type: in vivo; settings: concentration 600 mg/kg
[14] = tested on: Cercospora arachidicola; assay: Fungicidal (bactericidal) activity in vitro, PDA colony diameter; assay type: cell-based
[15] = tested on: Colletotrichum orbiculare; assay: as above; assay type: cell-based
[16] = tested on: mosquito larvae; assay: whole plant or invertebrate; settings: in vivo
Description: Experimental method of mosquito larvae: culex pipiens pallens, a normal colony raised indoors. Weigh about 5 mg of the compound for test, put it in a penicillin vial, add 5 mL of acetone (or an appropriate solvent), and shake and dissolve it to obtain a 1000 ppm mother solution. Pipette 0.5 mL of the mother solution, add it to a 100 mL beaker filled with 89.9 mL of water, select 10 mosquito larvae at the beginning of the fourth instar, and pour them to a beaker together with 10 mL of feeding solution. The concentration of the drug solution is 5 ppm. […] Use an aqueous solution containing 0.5 mL of test solvent as a blank.

[17] = tested on: Phytophthora capsici; assay: Fungicidal (bactericidal) activity in vitro, PDA colony diameter; assay type: cell-based
[18] = tested on: Botrytis cinerea; assay: as above; assay type: cell-based
[19] = tested on: tobacco mosaic virus (TMV); assay: Anti-TMV in vivo inactivation; design: species or system tobacco mosaic virus (host Nicotiana tabacum L.cv.Xanthi NN); settings: for inhibition at 100 µg/mL / inhibition at 500 µg/mL: Tobacco mosaic virus, read-out: Relative inhibition rate (%) In vivo inactivation
[20] = tested on: tobacco mosaic virus (TMV); assay: Anti-TMV in vitro effect (half-leaf soaking); assay type: cell-based, tobacco mosaic virus (host Nicotiana tabacum L.cv.Xanthi NN); settings: for inhibition at 100 µg/mL / inhibition at 500 µg/mL: Tobacco mosaic virus, read-out: Relative inhibition rate (%) In vitro activity
[21] = tested on: tobacco mosaic virus (TMV); assay: Anti-TMV in vivo protective effect; design: species or system tobacco mosaic virus (host Nicotiana tabacum L.cv.Xanthi NN); settings: for inhibition at 100 µg/mL / inhibition at 500 µg/mL: Tobacco mosaic virus, read-out: Relative inhibition rate (%) In vivo protection
[22] = tested on: tobacco mosaic virus (TMV); assay: Anti-TMV in vivo therapeutic effect; design: species or system tobacco mosaic virus (host Nicotiana tabacum L.cv.Xanthi NN); settings: for inhibition at 100 µg/mL / inhibition at 500 µg/mL: Tobacco mosaic virus, read-out: Relative inhibition rate (%) In vivo therapy

Question: Which “Bactericidal activity (%) Alternaria solani” value [1] does the source give for `CCOC(=O)[C@@H]1Cc2c([nH]c3ccccc23)[C@H](c2cccnc2)N1` [Ib-11, (1S, 3S)-1-(pyridine-3)-2,3,4,9-tetrahydropyridino [3,4-b] indol-3-ethyl formate] here?
Answer: Its value is 55.6%.

Question: What about the “Corn borer Mortality (%)” value [2] of the same molecule?
Answer: Its value is 5%.

Question: And the “Bactericidal activity (%) Fusarium graminearumt” value [3]?
Answer: The value was 28.6%.

Question: And the “Bactericidal activity (%) Fusarium fujikuroi” value [4]?
Answer: Its value is 28.6%.

Question: What about the “Bactericidal activity (%) Sclerotinia scleotiorum” value [5] of the same molecule?
Answer: Its value is 76.0%.

Question: And the “Cotton bollworm Mortality (%)” value [6]?
Answer: Its value is 20%.

Question: What about the “Bactericidal activity (%) Macrophoma kawatsukai” value [7] of the same molecule?
Answer: Its value is 35.3%.

Question: What about the “Bactericidal activity (%) Rhizoctonia solani” value [8] of the same molecule?
Answer: Its value is 17.9%.

Question: What about the “Bactericidal activity (%) Rhizoctonia cereali” value [9] of the same molecule?
Answer: The value was 65.6%.

Question: What about the “Bactericidal activity (%) potato late blight” value [10] of the same molecule?
Answer: Its value is 35.0%.

Question: And the “Bactericidal activity (%) Bipolaria maydis” value [11]?
Answer: Its value is 15.8%.

Question: And the “Bactericidal activity (%) Cucumber fusarium wilt” value [12]?
Answer: The value was 23.8%.

Question: What about the “Armyworm Mortality (%)” value [13] of the same molecule?
Answer: The value was 5%.

Question: And the “Bactericidal activity (%) Cercospora arachidicola” value [14]?
Answer: The value was 42.9%.

Question: And the “Bactericidal activity (%) Colletotrichum orbiculare” value [15]?
Answer: The value was 42.9%.

Question: What about the “Mosquito larvae Mortality (%)” value [16] of the same molecule?
Answer: Its value is 15%.

Question: What about the “Bactericidal activity (%) Phytophthora capsici” value [17] of the same molecule?
Answer: Its value is 36.4%.

Question: And the “Bactericidal activity (%) Botrytis cinerea” value [18]?
Answer: The value was 40.9%.

Question: With `COc1cc2c3c(c4cc(OC)c(OC)cc4c2cc1OC)CN1CCC[C@H]1C3.O=C(O)C[C@@H](O)C(=O)O` [NK-007, reference compound] as the molecule, how does the “Relative inhibition rate (%) In vivo inactivation” value ([19]; treatment dose 100 μg/mL) read?
Answer: Its value is 33.9%.

Question: And the “Relative inhibition rate (%) In vivo inactivation” value ([19]; treatment dose 500 μg/mL)?
Answer: Its value is 65.2%.

Question: What about the “Relative inhibition rate (%) In vitro activity” value ([20]; treatment dose 100 μg/mL) of the same molecule?
Answer: Its value is 38.7%.

Question: What about the “Relative inhibition rate (%) In vitro activity” value ([20]; treatment dose 500 μg/mL) of the same molecule?
Answer: The value was 65.4%.

Question: And the “Relative inhibition rate (%) In vivo protection” value ([21]; treatment dose 100 μg/mL)?
Answer: Its value is 36.2%.

Question: And the “Relative inhibition rate (%) In vivo protection” value ([21]; treatment dose 500 μg/mL)?
Answer: Its value is 67.9%.

Question: And the “Relative inhibition rate (%) In vivo therapy” value ([22]; treatment dose 100 μg/mL)?
Answer: The value was 34.9%.

Question: And the “Relative inhibition rate (%) In vivo therapy” value ([22]; treatment dose 500 μg/mL)?
Answer: Its value is 67.2%.

Question: For `CNCC(=O)N[C@@H](CO)C(=O)N[C@H]1[C@H](O)[C@@H](O)[C@H](n2ccc(N)nc2=O)O[C@@H]1C(N)=O` [Ningnanmycin, reference compound], which inhibition at 100 µg/mL ([19]; treatment dose 100 μg/mL) is on record?
Answer: The inhibition at 100 µg/mL was 38.4%.

Question: What about the inhibition at 500 µg/mL ([19]; treatment dose 500 μg/mL) of the same molecule?
Answer: The inhibition at 500 µg/mL was 68%.

Question: And the inhibition at 100 µg/mL ([20]; treatment dose 100 μg/mL)?
Answer: The inhibition at 100 µg/mL was 26.8%.

Question: And the inhibition at 500 µg/mL ([20]; treatment dose 500 μg/mL)?
Answer: Its inhibition at 500 µg/mL is 73.3%.

Question: What about the inhibition at 100 µg/mL ([21]; treatment dose 100 μg/mL) of the same molecule?
Answer: Its inhibition at 100 µg/mL is 23.1%.

Question: And the inhibition at 500 µg/mL ([21]; treatment dose 500 μg/mL)?
Answer: The inhibition at 500 µg/mL was 65.4%.

Question: And the inhibition at 100 µg/mL ([22]; treatment dose 100 μg/mL)?
Answer: The inhibition at 100 µg/mL was 20%.

Question: And the inhibition at 500 µg/mL ([22]; treatment dose 500 μg/mL)?
Answer: The inhibition at 500 µg/mL was 54.2%.

Question: Which results are given for `NC(=O)c1ncn([C@@H]2O[C@H](CO)[C@@H](O)[C@H]2O)n1` [Virazole, reference compound]?
Answer: inhibition at 100 µg/mL ([19]; treatment dose 100 μg/mL): 12.9%; inhibition at 500 µg/mL ([19]; treatment dose 500 μg/mL): 36.3%; inhibition at 100 µg/mL ([20]; treatment dose 100 μg/mL): 15.3%; inhibition at 500 µg/mL ([20]; treatment dose 500 μg/mL): 39.5%; inhibition at 100 µg/mL ([21]; treatment dose 100 μg/mL): 16.2%; inhibition at 500 µg/mL ([21]; treatment dose 500 μg/mL): 37.6%; inhibition at 100 µg/mL ([22]; treatment dose 100 μg/mL): 11.9%; inhibition at 500 µg/mL ([22]; treatment dose 500 μg/mL): 35.4%

Source: patent US10208033B2, “β-carboline, dihydro-β-carboline and tetrahydro-β-carboline alkaloid derivatives and preparation methods same and use in aspects of preventing and treating plant viruses, fungicides and insecticides” (NANKAI UNIVERSITY, priority 2013, dated 2019)
